Source: PubChem BioAssay (NCI)
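Growth conditions: 96-well plates. Treatment: test compound, 48 hours, 5 concentrations. Analysis: linear interpolation between bracketing concentrations; unreached endpoints set to highest concentration. GI50: concentration for 50% inhibition of growth. TGI marks complete inhibition of growth.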

Legend:
Experiment in all cases: growth of human tumour cells (NCI), 48 h
NCI-H460 lung = tested on: NCI-H460 lung
DU-145 prostate = tested on: DU-145 prostate
HT29 colon = tested on: HT29 colon
TK-10 renal = tested on: TK-10 renal
UACC-257 melanoma = tested on: UACC-257 melanoma
CCRF-CEM leukemia = tested on: CCRF-CEM leukemia
SR leukemia = tested on: SR leukemia
U251 CNS = tested on: U251 CNS
SF-295 CNS = tested on: SF-295 CNS
NCI-H522 lung = tested on: NCI-H522 lung
OVCAR-8 ovarian = tested on: OVCAR-8 ovarian
LOX IMVI melanoma = tested on: LOX IMVI melanoma
HL-60(TB) leukemia = tested on: HL-60(TB) leukemia
UACC-62 melanoma = tested on: UACC-62 melanoma
OVCAR-5 ovarian = tested on: OVCAR-5 ovarian
MDA-MB-435 = tested on: MDA-MB-435
K-562 leukemia = tested on: K-562 leukemia
NCI-H23 lung = tested on: NCI-H23 lung
A549 NSCLC = tested on: A549 NSCLC
ACHN renal = tested on: ACHN renal
UO-31 renal = tested on: UO-31 renal
SK-MEL-2 melanoma = tested on: SK-MEL-2 melanoma
MDA-MB-231 breast = tested on: MDA-MB-231 breast
COLO 205 colon = tested on: COLO 205 colon
OVCAR-4 ovarian = tested on: OVCAR-4 ovarian
MOLT-4 leukemia = tested on: MOLT-4 leukemia
HOP-92 NSCLC = tested on: HOP-92 NSCLC
SK-MEL-28 melanoma = tested on: SK-MEL-28 melanoma
SK-OV-3 ovarian = tested on: SK-OV-3 ovarian
NCI-H226 lung = tested on: NCI-H226 lung
SF-268 CNS = tested on: SF-268 CNS
HCC-2998 colon = tested on: HCC-2998 colon
CAKI-1 renal = tested on: CAKI-1 renal
HCT-116 colon = tested on: HCT-116 colon
NCI/ADR-RES ovarian = tested on: NCI/ADR-RES ovarian
KM12 colon = tested on: KM12 colon
HCT-15 colon = tested on: HCT-15 colon
HOP-62 NSCLC = tested on: HOP-62 NSCLC
SW-620 colon = tested on: SW-620 colon
SNB-75 CNS = tested on: SNB-75 CNS
PC-3 prostate = tested on: PC-3 prostate
M14 melanoma = tested on: M14 melanoma
IGROV1 ovarian = tested on: IGROV1 ovarian
SK-MEL-5 melanoma = tested on: SK-MEL-5 melanoma
A498 renal = tested on: A498 renal
T-47D breast = tested on: T-47D breast
SF-539 CNS = tested on: SF-539 CNS
BT-549 breast = tested on: BT-549 breast
MALME-3M melanoma = tested on: MALME-3M melanoma
MCF7 breast = tested on: MCF7 breast
OVCAR-3 ovarian = tested on: OVCAR-3 ovarian
HS 578T breast = tested on: HS 578T breast
786-0 renal = tested on: 786-0 renal
RPMI-8226 leukemia = tested on: RPMI-8226 leukemia
SNB-19 CNS = tested on: SNB-19 CNS
SN12C renal = tested on: SN12C renal

Work on O=C(Nc1ccc(CN2CCOCC2)cc1)c1ccc(-c2cc(Cl)ccc2Cl)o1 yielded a GI50 (NCI-H460 lung) of 3.54 µM, a TGI (NCI-H460 lung) of 12.4 µM and a GI50 (DU-145 prostate) of 18 µM. The TGI (DU-145 prostate) was 63.3 µM, the GI50 (HT29 colon) was 2.96 µM and the TGI (HT29 colon) was 12 µM. The GI50 (TK-10 renal) was 13.1 µM, the TGI (TK-10 renal) was 29.1 µM and the GI50 (UACC-257 melanoma) was 11.2 µM. For the same molecule, the TGI (UACC-257 melanoma) was 24.4 µM, the GI50 (CCRF-CEM leukemia) was 6.02 µM and the TGI (CCRF-CEM leukemia) was 49.1 µM. It also gave a GI50 (SR leukemia) of 2.35 µM, a TGI (SR leukemia) of 8.99 µM and a GI50 (U251 CNS) of 4.62 µM. The TGI (U251 CNS) was 19.6 µM, the GI50 (SF-295 CNS) was 5.38 µM and the TGI (SF-295 CNS) was 28.5 µM. The GI50 (NCI-H522 lung) was 10.2 µM, the TGI (NCI-H522 lung) was 26.6 µM and the GI50 (OVCAR-8 ovarian) was 11.4 µM. For the same molecule, the TGI (OVCAR-8 ovarian) was 51.3 µM, the GI50 (LOX IMVI melanoma) was 2.65 µM and the TGI (LOX IMVI melanoma) was 13 µM. It also gave a GI50 (HL-60(TB) leukemia) of 4.45 µM, a TGI (HL-60(TB) leukemia) of 20.9 µM and a GI50 (UACC-62 melanoma) of 2.39 µM. For the same molecule, the TGI (UACC-62 melanoma) was 6.88 µM, the GI50 (OVCAR-5 ovarian) was 15.7 µM and the TGI (OVCAR-5 ovarian) was 61.1 µM. The GI50 (MDA-MB-435) was 11.6 µM, the TGI (MDA-MB-435) was 29.2 µM and the GI50 (K-562 leukemia) was 2 µM. The TGI (K-562 leukemia) was 6.09 µM, the GI50 (NCI-H23 lung) was 12.8 µM and the TGI (NCI-H23 lung) was 31.8 µM. The GI50 (A549 NSCLC) was 7.48 µM, the TGI (A549 NSCLC) was 32.4 µM and the GI50 (ACHN renal) was 18.4 µM. It also gave a TGI (ACHN renal) of 97.9 µM, a GI50 (UO-31 renal) of 18.3 µM and a TGI (UO-31 renal) of 78.1 µM. The GI50 (SK-MEL-2 melanoma) was 14.7 µM, the TGI (SK-MEL-2 melanoma) was 30.5 µM and the GI50 (MDA-MB-231 breast) was 10.7 µM. The TGI (MDA-MB-231 breast) was 29.5 µM, the GI50 (COLO 205 colon) was 2.24 µM and the TGI (COLO 205 colon) was 4.19 µM. It also gave a GI50 (OVCAR-4 ovarian) of 17.6 µM, a TGI (OVCAR-4 ovarian) of 67.1 µM and a GI50 (MOLT-4 leukemia) of 4.34 µM. It also gave a TGI (MOLT-4 leukemia) of 20.5 µM, a GI50 (HOP-92 NSCLC) of 10.2 µM and a TGI (HOP-92 NSCLC) of 33.7 µM. It also gave a GI50 (SK-MEL-28 melanoma) of 11.9 µM, a TGI (SK-MEL-28 melanoma) of 26.6 µM and a GI50 (SK-OV-3 ovarian) of 15.1 µM. The TGI (SK-OV-3 ovarian) was 30.6 µM, the GI50 (NCI-H226 lung) was 12.2 µM and the TGI (NCI-H226 lung) was 33.6 µM. It also gave a GI50 (SF-268 CNS) of 16.5 µM, a TGI (SF-268 CNS) of 49.1 µM and a GI50 (HCC-2998 colon) of 9.29 µM. It also gave a TGI (HCC-2998 colon) of 23 µM, a GI50 (CAKI-1 renal) of 13 µM and a TGI (CAKI-1 renal) of 56.4 µM. The GI50 (HCT-116 colon) was 5.92 µM, the TGI (HCT-116 colon) was 21.4 µM and the GI50 (NCI/ADR-RES ovarian) was 17.4 µM. For the same molecule, the TGI (NCI/ADR-RES ovarian) was greater than 100 µM, the GI50 (KM12 colon) was 4.41 µM and the TGI (KM12 colon) was 16.3 µM. It also gave a GI50 (HCT-15 colon) of 3.29 µM, a TGI (HCT-15 colon) of 34.4 µM and a GI50 (HOP-62 NSCLC) of 15.5 µM. It also gave a TGI (HOP-62 NSCLC) of 38.5 µM, a GI50 (SW-620 colon) of 3.33 µM and a TGI (SW-620 colon) of 11.5 µM. The GI50 (SNB-75 CNS) was 16 µM, the TGI (SNB-75 CNS) was 36 µM and the GI50 (PC-3 prostate) was 8.63 µM. The TGI (PC-3 prostate) was 36.4 µM, the GI50 (M14 melanoma) was 11.1 µM and the TGI (M14 melanoma) was 32.4 µM. For the same molecule, the GI50 (IGROV1 ovarian) was 23.5 µM, the TGI (IGROV1 ovarian) was 61.6 µM and the GI50 (SK-MEL-5 melanoma) was 4.45 µM. For the same molecule, the TGI (SK-MEL-5 melanoma) was 16.7 µM, the GI50 (A498 renal) was 10 µM and the TGI (A498 renal) was 22.1 µM. For the same molecule, the GI50 (T-47D breast) was 5.34 µM, the TGI (T-47D breast) was 22.4 µM and the GI50 (SF-539 CNS) was 8.69 µM. For the same molecule, the TGI (SF-539 CNS) was 24.9 µM, the GI50 (BT-549 breast) was 7.79 µM and the TGI (BT-549 breast) was 43.1 µM. For the same molecule, the GI50 (MALME-3M melanoma) was 8.74 µM, the TGI (MALME-3M melanoma) was 29.2 µM and the GI50 (MCF7 breast) was 9.98 µM. It also gave a TGI (MCF7 breast) of 26.3 µM, a GI50 (OVCAR-3 ovarian) of 15.3 µM and a TGI (OVCAR-3 ovarian) of 39.2 µM. It also gave a GI50 (HS 578T breast) of 12.5 µM, a TGI (HS 578T breast) of 34.4 µM and a GI50 (786-0 renal) of 11.8 µM. It also gave a TGI (786-0 renal) of 26.1 µM, a GI50 (RPMI-8226 leukemia) of 3.49 µM and a TGI (RPMI-8226 leukemia) of 17.7 µM. It also gave a GI50 (SNB-19 CNS) of 16.2 µM, a TGI (SNB-19 CNS) of 35.6 µM and a GI50 (SN12C renal) of 16.4 µM. For the same molecule, the TGI (SN12C renal) was 52.6 µM.
